The target in the experiment is T1, full-length human PKCι (Homo sapiens, UniProt P41743).
T1 construct: Recombinant, full-length human PKCι expressed in Sf21 insect cells is also commercially available; purchased; host or cells: Sf21 insect cells
T1 sequence (P41743 1-596): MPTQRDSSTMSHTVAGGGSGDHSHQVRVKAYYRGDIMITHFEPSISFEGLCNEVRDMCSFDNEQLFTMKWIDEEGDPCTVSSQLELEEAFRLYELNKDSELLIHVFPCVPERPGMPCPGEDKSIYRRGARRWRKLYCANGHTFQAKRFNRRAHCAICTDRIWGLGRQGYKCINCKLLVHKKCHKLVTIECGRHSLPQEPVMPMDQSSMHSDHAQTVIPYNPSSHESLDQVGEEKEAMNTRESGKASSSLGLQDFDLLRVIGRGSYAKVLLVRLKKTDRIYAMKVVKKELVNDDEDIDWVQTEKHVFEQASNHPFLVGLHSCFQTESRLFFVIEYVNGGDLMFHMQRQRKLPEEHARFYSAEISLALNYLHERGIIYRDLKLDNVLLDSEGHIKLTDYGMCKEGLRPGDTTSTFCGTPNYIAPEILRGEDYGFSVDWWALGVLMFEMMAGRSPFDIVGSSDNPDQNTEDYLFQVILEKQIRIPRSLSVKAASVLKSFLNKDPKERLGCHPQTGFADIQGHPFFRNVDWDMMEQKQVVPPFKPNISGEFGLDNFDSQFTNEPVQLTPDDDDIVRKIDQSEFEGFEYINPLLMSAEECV
Put plainly: PKCι IC50 IMAP assay, full-length PKCι at 150 μM ATP. Format: biochemical. The settings on record: read-out: IC50 in IMAP assay against full length PKCi at 150 μM ATP. An outline of the steps: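 Dose-response IC50 values come from IMAP fluorescence polarisation after 60 min room-temperature turnover of 100 nM FAM peptide by ~15 pM insect-cell-expressed full-length PKCι at 150 μM ATP (5× KM^APP), normalised to no-compound and no-enzyme controls.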

pIC50: −log10 of the molar value. Some results are limits rather than exact numbers.

What is called pIC50 is −log10 of the IC50, conventionally taken in molar units.

In the case of `N#CC[C@H]1CN(c2nc(-c3ccnc(Nc4ccccc4)c3)nc3cncc(C4CC4)c23)CCN1` [Example 280, {(S)-4-[5-Cyclopropyl-2-(2-phenylamino-pyridin-4-yl)-pyrido[3,4-d]pyrimidin-4-yl]-piperazin-2-yl}-acetonitrile], the pIC50 was over 7.00.

Take `COc1cncc2nc(-c3ccnc(NC(=O)c4cccs4)c3)nc(N[C@@H]3CCNC3)c12` [Example 240, Thiophene-2-carboxylic acid {4-[5-methoxy-4-((R)-pyrrolidin-3-ylamino)-pyrido[3,4-d]pyrimidin-2-yl]-pyridin-2-yl}-amide]: the pIC50 was over 7.00.

As for `COCC(C)(C)c1cc2c(-c3nc(N4CCNCC4)c4c(C5CCC5)cncc4n3)ccnc2[nH]1` [Example 2109, 5-Cyclobutyl-2-[2-(2-methoxy-1,1-dimethyl-ethyl)-1H-pyrrolo[2,3-b]pyridin-4-yl]-4-piperazin-1-yl-pyrido[3,4-d]pyrimidine], the pIC50 was over 7.00.

For `COc1cncc2nc(-c3ccnc(Nc4ccccc4C(F)(F)F)c3)nc(N3CCNCC3)c12` [Example 445, [4-(5-Methoxy-4-piperazin-1-yl-pyrido[3,4-d]pyrimidin-2-yl)-pyridin-2-yl]-(2-trifluoromethyl-phenyl)-amine], the pIC50 is 6.00 to 7.00.

As to `COc1cncc2nc(-c3ccnc(Nc4ccccc4)c3)nc(N3CCC(O)C(O)C3)c12` (single isomer, unassigned) [Example 456, (3S,4S)-1-[5-Methoxy-2-(2-phenylamino-pyridin-4-yl)-pyrido[3,4-d]pyrimidin-4-yl]-piperidine-3,4-diol or (3R,4R)-1-[5-Methoxy-2-(2-phenylamino-pyridin-4-yl)-pyrido[3,4-d]pyrimidin-4-yl]-piperidine-3,4-diol], the pIC50 is 6.00 to 7.00.

On to `N[C@H](CNc1nc(-c2ccncc2)nc2c(-c3cccnc3)nccc12)Cc1ccccc1` [Example 99, N-[(2S)-2-amino-3-phenylpropyl]-8-(pyridin-3-yl)-2-(pyridin-4-yl)pyrido[3,4-d]pyrimidin-4-amine], for which the pIC50 was 6.00 to 7.00.

For the molecule `COc1cncc2nc(-c3ccnc(Nc4ccccc4)c3)nc(N3CCN[C@H](CF)C3)c12` [Example 235, {4-[4-((S)-3-Fluoro-methyl-piperazin-1-yl)-5-methoxy-pyrido[3,4-d]pyrimidin-2-yl]-pyridin-2-yl}-phenyl-amine], the pIC50 is 6.00 to 7.00.

Take `COc1cncc2nc(-c3ccnc(Nc4cncnc4)c3)nc(N3CCNCC3)c12` [Example 386, [4-(5-Methoxy-4-piperazin-1-yl-pyrido[3,4-d]pyrimidin-2-yl)-pyridin-2-yl]-pyrimidin-5-yl-amine]: the pIC50 is 6.00 to 7.00.

In the case of `CN1CCC(N(C)c2nc(-c3ccnc(Nc4ncc(F)cc4F)c3)nc3cncc(C4CC4)c23)CC1` [Example 2129, {5-Cyclopropyl-2-[2-(3,5-difluoro-pyridin-2-ylamino)-pyridin-4-yl]-pyrido[3,4-d]pyrimidin-4-yl}-methyl-(1-methyl-piperidin-4-yl)-amine], the pIC50 was over 7.00.

Turning to `NC(=O)COc1cccc(Nc2cc(-c3nc(N[C@@H]4CCNC4)c4ccncc4n3)ccn2)c1` [Example 311, 2-(3-{4-[4-((R)-Pyrrolidin-3-ylamino)-pyrido[3,4-d]pyrimidin-2-yl]-pyridin-2-ylamino}-phenoxy)-acetamide], the pIC50 is over 7.00.

As for `Fc1cccc(F)c1Nc1cc(-c2nc(N3CCNCC3)c3c(C4CC4)cnc(F)c3n2)ccn1` [Example 2101, [4-(5-Cyclopropyl-8-fluoro-4-piperazin-1-yl-pyrido[3,4-d]pyrimidin-2-yl)-pyridin-2-yl]-(2,6-difluoro-phenyl)-amine], the pIC50 was over 7.00.

With `CC1(C)CN(c2nc(-c3ccnc(Nc4ncccc4F)c3)nc3cncc(C4CC4)c23)CCN1` [Example 840, {4-[5-Cyclopropyl-4-(3,3-dimethyl-piperazin-1-yl)-pyrido[3,4-d]pyrimidin-2-yl]-pyridin-2-yl}-(3-fluoro-pyridin-2-yl)-amine], the pIC50 was over 7.00.

Consider `COc1cncc2nc(-c3ccnc(Nc4cccnc4)c3)nc(N[C@@H]3CCNC3)c12` [Example 377, {5-Methoxy-2-[2-(pyridin-3-ylamino)-pyridin-4-yl]-pyrido[3,4-d]pyrimidin-4-yl}-(R)-pyrrolidin-3-yl-amine], for which the pIC50 was 6.00 to 7.00.

With `FC(F)(F)c1cc2c(-c3nc(NC4CCNCC4)c4c(C5CC5)cncc4n3)ccnc2[nH]1` [Example 2068, [5-Cyclopropyl-2-(2-trifluoromethyl-1H-pyrrolo[2,3-b]pyridin-4-yl)-pyrido[3,4-d]pyrimidin-4-yl]-piperidin-4-yl-amine], the pIC50 was over 7.00.

In the case of `N#Cc1ccccc1Nc1cc(-c2nc(N3CCNCC3)c3c(C4CC4)cncc3n2)ccn1` [Example 519, 2-[4-(5-Cyclopropyl-4-piperazin-1-yl-pyrido[3,4-d]pyrimidin-2-yl)-pyridin-2-ylamino]-benzonitrile], the pIC50 was 6.00 to 7.00.

As for `CC(C)NC(=O)C1CCN(c2nc(-c3ccnc(NC4CCCC4)c3)nc3cncc(C4CC4)c23)CC1` [Example 679, 1-[2-(2-Cyclopentylamino-pyridin-4-yl)-5-cyclopropyl-pyrido[3,4-d]pyrimidin-4-yl]-piperidine-4-carboxylicacid isopropylamide], the pIC50 is 5.00 to 6.00.

`N[C@H](CNc1nc(-c2ccncc2)nc2cnccc12)Cc1ccccc1` [Example 6, N-[(2S)-2-amino-3-phenylpropyl]-2-(pyridin-4-yl)pyrido[3,4-d]-pyrimidin-4-amine]: the pIC50 was over 7.00.

For the molecule `NC(=O)Cc1ccc(Nc2cc(-c3nc(N[C@@H]4CCNC4)c4ccncc4n3)ccn2)cc1` [Example 313, 2-(4-{4-[4-((R)-Pyrrolidin-3-ylamino)-pyrido[3,4-d]pyrimidin-2-yl]-pyridin-2-ylamino}-phenyl)-acetamide], the pIC50 was over 7.00.

Consider `c1cc(-c2nc(N3CCOCC3)c3ccncc3n2)ccn1` [Example 21, 4-[2-(pyridin-4-yl)pyrido[3,4-d]-pyrimidin-4-yl]morpholine], for which the pIC50 is 4.40 to 5.00.

As for `COc1cncc2nc(-c3ccnc(Nc4cccc(F)n4)c3)nc(N3CC[C@H](CO)C3)c12` [Example 470, ((S)-1-{2-[2-(6-Fluoro-pyridin-2-ylamino)-pyridin-4-yl]-5-methoxy-pyrido[3,4-d]pyrimidin-4-yl}-pyrrolidin-3-yl)-methanol], the pIC50 is 5.00 to 6.00.

As to `c1cc(-c2nc(N3CCNCC3)c3c(C4CCC4)cncc3n2)c2cc([C@H]3C[C@H]4CC[C@@H]3C4)[nH]c2n1` (racemic) [Example 2135, (±)-endo-2-(2-Bicyclo[2.2.1]hept-2-yl-1H-pyrroIo[2,3-b]pyridin-4-yl)-5-cyclobutyl-4-piperazin-1-yl-pyridor3,4-d]pyrimidine], the pIC50 was over 7.00.

Turning to `COc1cncc2nc(-c3ccnc(Nc4cc(C#N)ccn4)c3)nc(N3CCOCC3)c12` [Example 388, 2-[4-(5-Methoxy-4-morpholin-4-yl-pyrido[3,4-d]pyrimidin-2-yl)-pyridin-2-ylamino]-isonicotinonitrile], the pIC50 was 4.40 to 5.00.

Regarding `OCC1CN(c2nc(-c3ccncc3)nc3c(Cl)nccc23)C1` [Example 73, {1-[8-chloro-2-(pyridin-4-yl)-pyrido[3,4-d]-pyrimidin-4-yl]-azetidin-3-yl}-methanol], the pIC50 is 4.40 to 5.00.

Consider `c1cc(-c2nc(N3CCNCC3)c3c(C4CC4)cncc3n2)cc(NC23CC4CC(CC(C4)C2)C3)n1` [Example 285, Adamantan-1-yl-[4-(5-cyclopropyl-4-piperazin-1-yl-pyrido[3,4-d]pyrimidin-2-yl)-pyridin-2-yl]-amine], for which the pIC50 was over 7.00.

As to `COc1cncc2nc(-c3ccnc(Nc4cnn(-c5ccccc5F)c4)c3)nc(N3CCNCC3)c12` [Example 491, [1-(2-Fluoro-phenyl)-1H-pyrazol-4-yl]-[4-(5-methoxy-4-piperazin-1-yl-pyrido[3,4-d]pyrimidin-2-yl)-pyridin-2-yl]-amine], the negative-log IC50 (pIC50) is over 7.00.

As to `COc1cncc2nc(-c3ccnc(Nc4ccccc4)c3)nc(N3CCNCC3)c12` [Example 200, [4-(5-Methoxy-4-piperazin-1-yl-pyrido[3,4-d]pyrimidin-2-yl)-pyridin-2-yl]-phenyl-amine], the pIC50 is over 7.00.

On to `NC(=O)N1CCN(c2nc(-c3ccncc3)nc3cnccc23)CC1` [Example 56, 4-[2-(pyridin-4-yl)-pyrido[3,4-d]-pyrimidin-4-yl]-piperazine-1-carboxamide], for which the pIC50 was 4.40 to 5.00.

For `N#Cc1ccnc(Nc2cc(-c3nc(N4CCNCC4)c4c(C5CC5)cncc4n3)ccn2)c1` [Example 265, 2-[4-(5-Cyclopropyl-4-piperazin-1-yl-pyrido[3,4-d]pyrimidin-2-yl)-pyridin-2-ylamino]-isonicotinonitrile], the pIC50 was over 7.00.

For the molecule `COc1cncc2nc(-c3ccnc(Nc4ccccc4)c3)nc(N3CCC(N4CCOCC4)CC3)c12` [Example 354, {4-[5-Methoxy-4-(4-morpholin-4-yl-piperidin-1-yl)-pyrido[3,4-d]pyrimidin-2-yl]-pyridin-2-yl}-phenyl-amine], the pIC50 is 5.00 to 6.00.
